Data: PubChem BioAssay AID652110 (The Scripps Research Institute Molecular Screening Center, 2013)
Calls of active or inactive are those of the source. The rule behind the calls is not given here.

biological target: Serine/threonine-protein phosphatase PP1-alpha catalytic subunit (Homo sapiens) (UniProt P62136); assay: inhibition of PP1 activity on phosphorylase substrate – biochemical, radiolabel, 32P-phosphorylase substrate, single concentration, PP1 inhibitor probe project, late-stage follow-up (AID 652110); conditions: PP1 dephosphorylation of 32P-glycogen phosphorylase, at 50 µM, active compounds read high
Sequence (P62136 whole entry, looked up): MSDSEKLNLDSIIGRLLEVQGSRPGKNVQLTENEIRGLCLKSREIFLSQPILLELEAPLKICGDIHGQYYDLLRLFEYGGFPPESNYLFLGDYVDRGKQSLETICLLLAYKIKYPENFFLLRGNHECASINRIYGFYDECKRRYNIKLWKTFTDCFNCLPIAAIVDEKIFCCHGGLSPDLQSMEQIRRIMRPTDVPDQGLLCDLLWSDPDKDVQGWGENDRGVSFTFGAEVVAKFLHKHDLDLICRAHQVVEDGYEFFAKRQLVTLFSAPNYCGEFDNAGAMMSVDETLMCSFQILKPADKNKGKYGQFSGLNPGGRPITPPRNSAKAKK

Q: Which inhibition does the source give for `c1ccc(Nc2nc(-c3ccccn3)cs2)cc1` here?
A: Its inhibition is 13.2% (inactive).

Q: Which inhibition does the source give for `O=C1Nc2ccccc2N2CCCC12` (stereo not given) here?
A: Its inhibition is 9.82% (inactive).

Q: How did the inhibition turn out when `CCCCn1c(NC(=O)c2ccco2)c(C(=O)OCC)c2nc3ccccc3nc21` was run?
A: Its inhibition is 29.8% (inactive).

Q: With `COc1cnc(-c2ccccn2)nc1Sc1ccc(Cl)cc1` as the compound, how does the inhibition read?
A: The inhibition was 12.2% (inactive).

Q: For `COc1ccc(OCCCC(=O)Nc2nc(-c3ccccn3)cs2)cc1`, which inhibition is on record?
A: Its inhibition is 19.4% (inactive).

Q: For `COc1cnc(-c2ccccn2)nc1Sc1ccc(C)cc1`, which inhibition is on record?
A: The inhibition was 9.79% (inactive).

Q: For `O=C(NC1(O)C(=O)c2ccccc2C1=O)c1c(Cl)cccc1Cl`, which inhibition is on record?
A: Its inhibition is 33.1% (inactive).

Q: For `CCOC(=O)c1cnc(-n2nc(C)cc2C)nc1NCCc1ccccc1`, which inhibition is on record?
A: Its inhibition is 16.9% (inactive).

Q: Which inhibition does the source give for `O=C(NC1(O)C(=O)c2ccccc2C1=O)c1ccc(C(F)(F)F)cc1` here?
A: Its inhibition is 39.2% (inactive).

Q: How did the inhibition turn out when `COc1ccc(Cl)cc1C(=O)Nc1cccc(-c2ccc3nncn3n2)c1` was run?
A: Its inhibition is 61.7% (inactive).

Q: For `COc1ccc(NC(=O)C2C3CCC(O3)C2C(=O)O)c(OC)c1` (stereo not given), which inhibition is on record?
A: Its inhibition is 73.9%.

Q: How did the inhibition turn out when `CCOC(=O)c1cnc(-n2nc(C)cc2C)nc1NC1CCCCC1` was run?
A: The inhibition was 16.3% (inactive).

Q: `COc1ccccc1Sc1nc(-c2ccccn2)ncc1OC` was tested. Which inhibition did it give?
A: The inhibition was -0.402% (inactive).

Q: `Nc1cc2nsnc2cc1Br` was tested. Which inhibition did it give?
A: Its inhibition is 27.9% (inactive).

Q: How did the inhibition turn out when `COc1ccc2c(Cl)c(C(=O)N/N=C/c3ccc4c(c3)OCO4)sc2c1` was run?
A: The inhibition was 33.4% (inactive).

Q: How did the inhibition turn out when `COc1cnc(-c2ccccn2)nc1Sc1ccccc1` was run?
A: Its inhibition is 0.752% (inactive).

Q: How did the inhibition turn out when `CC(C)(CS(=O)(=O)[O-])NC(=O)CC[N+](C)(C)CCO` was run?
A: Its inhibition is 3.71% (inactive).

Q: Which inhibition does the source give for `COc1ccc(NC(=S)Nc2ccc3nsnc3c2)cc1` here?
A: Its inhibition is 13.3% (inactive).

Q: How did the inhibition turn out when `O=C(O)c1n[nH]nc1-c1ccccc1` was run?
A: Its inhibition is 22.4% (inactive).

Q: With `c1ccc(-c2nccc(-c3ccc(-n4cnc5ccccc54)cc3)n2)nc1` as the compound, how does the inhibition read?
A: Its inhibition is 43% (inactive).

Q: With `CN1CCN(C(c2ccccn2)c2cc(Cl)c3cccnc3c2O)CC1` (stereo not given) as the compound, how does the inhibition read?
A: Its inhibition is 97%.

Q: How did the inhibition turn out when `COc1ccc(Sc2nc(-c3ccccn3)ncc2OC)cc1` was run?
A: Its inhibition is -0.0224% (inactive).

Q: `O=C1CCCC2=C1C1(O)C(=O)c3ccccc3C1(O)O2` (stereo not given) was tested. Which inhibition did it give?
A: Its inhibition is 19.8% (inactive).

Q: For `N#Cc1c(N2CCCC(O)C2)nc(N)c2c(N)nc3c(c12)CC(=O)N3C12CC3CC(CC(C3)C1)C2` (stereo not given), which inhibition is on record?
A: Its inhibition is 24.2% (inactive).

Q: For `CCOC(=O)c1cnc(-n2nc(C)cc2C)nc1NC(C)c1ccccc1` (stereo not given), which inhibition is on record?
A: The inhibition was 15.8% (inactive).

Q: `O=C(O)c1cc(-c2ccc(Cl)cc2)n(-c2cccc(Cl)c2)n1` was tested. Which inhibition did it give?
A: Its inhibition is 12% (inactive).

Q: For `CCOC(=O)c1cnc(-n2cc(C)cn2)nc1NCc1ccc2c(c1)OCO2`, which inhibition is on record?
A: Its inhibition is 21.6% (inactive).

Q: With `CCOC(=O)c1nn(-c2ccc(C)cc2)c(=O)c2c(N)scc12` as the compound, how does the inhibition read?
A: Its inhibition is 12.3% (inactive).

Q: With `CCOC(=O)C1=C(C)OC2(O)c3ccccc3C(=O)C12O` (stereo not given) as the compound, how does the inhibition read?
A: Its inhibition is 17.4% (inactive).

Q: `COc1ccc(C(=O)c2nccc3cc(OC)c(OC)cc23)cc1OC` was tested. Which inhibition did it give?
A: The inhibition was 9.58% (inactive).

Q: With `Oc1ccc(/C=N/Nc2cc(N3CCOCC3)nc(N3CCOCC3)n2)c(O)c1` as the compound, how does the inhibition read?
A: The inhibition was 20.3% (inactive).

Q: With `N#Cc1c(-c2ccc(Cl)cc2)cc(-c2cccs2)nc1SCC(=O)O` as the compound, how does the inhibition read?
A: Its inhibition is 81.6%.

Q: For `CCOc1ccc(NC(=S)Nc2ccc3nsnc3c2)cc1`, which inhibition is on record?
A: Its inhibition is 9.35% (inactive).

Q: How did the inhibition turn out when `CCOC(=O)c1sc2nc3c(SCC(=O)O)cc(C(=O)c4cc(F)ccc4O)cn3c(=O)c2c1C` was run?
A: The inhibition was 92.2%.

Q: With `Oc1ccccc1/C=N/Nc1cc(N2CCCC2)nc(N2CCCC2)n1` as the compound, how does the inhibition read?
A: Its inhibition is 17.2% (inactive).

Q: With `COc1cnc(-c2ccccn2)nc1Oc1cccc(C(F)(F)F)c1` as the compound, how does the inhibition read?
A: The inhibition was 0.507% (inactive).

Q: Which inhibition does the source give for `CC(=O)C(C(C)=O)C1(O)C(=O)c2ccccc2C1=O` here?
A: The inhibition was 24.6% (inactive).

Q: With `Cc1ccc(-n2nc(C(=O)O)cc2-c2ccc(Cl)cc2)cc1` as the compound, how does the inhibition read?
A: The inhibition was 5.4% (inactive).

Q: How did the inhibition turn out when `CCOC(=O)c1cnc(-n2nc(C)cc2C)nc1NCc1ccccc1` was run?
A: The inhibition was 7.11% (inactive).

Q: How did the inhibition turn out when `O=C(NC1(O)C(=O)c2ccccc2C1=O)c1ccccc1` was run?
A: The inhibition was 30.4% (inactive).

Q: Which inhibition does the source give for `O=C(Nc1nc(-c2ccccn2)cs1)C1CC(=O)N(c2ccc3c(c2)OCCO3)C1` (stereo not given) here?
A: The inhibition was 19.7% (inactive).

Q: With `Cc1cc(C)c(S(=O)(=O)/N=C2\C=C(Sc3ncn[nH]3)C(=O)c3ccccc32)cc1C` as the compound, how does the inhibition read?
A: Its inhibition is 30.5% (inactive).

Q: How did the inhibition turn out when `CCn1c2ccccc2c2cc(NC(=O)COC(=O)c3ccc(NC(=O)CC#N)cc3)ccc21` was run?
A: Its inhibition is 74.6%.

Q: How did the inhibition turn out when `COc1cnc(-c2ccccn2)nc1Sc1cccc(Cl)c1` was run?
A: Its inhibition is 23% (inactive).

Q: `Cc1nnc(NC(=O)C2C3C=CC(O3)C2C(=O)O)s1` (stereo not given) was tested. Which inhibition did it give?
A: The inhibition was 56.1% (inactive).

Q: With `O=C(O)C1C2CCC(O2)C1C(=O)NC1CCCCC1` (stereo not given) as the compound, how does the inhibition read?
A: Its inhibition is 66.1% (inactive).

Q: `CCCCN(CC)c1nc(N)c2c(N)nc(OCC)cc2c1C#N` was tested. Which inhibition did it give?
A: The inhibition was 17.2% (inactive).

Q: With `COc1cnc(-c2ccccn2)nc1Oc1cccc(Cl)c1` as the compound, how does the inhibition read?
A: The inhibition was 3.5% (inactive).

Q: Which inhibition does the source give for `Cc1[nH]n(-c2ccccc2)c(=O)c1C(c1ccc([N+](=O)[O-])cc1)c1c(C)[nH]n(-c2ccccc2)c1=O` here?
A: The inhibition was 48.3% (inactive).

Q: Which inhibition does the source give for `Cc1ccc(C(=O)NNc2cc(N3CCCC3)nc(N3CCCC3)n2)cc1` here?
A: Its inhibition is 14.4% (inactive).

Q: How did the inhibition turn out when `COc1ccc(Cn2c(N)c(C(=O)NCc3ccco3)c3nc4ccccc4nc32)cc1OC` was run?
A: Its inhibition is 8.99% (inactive).

Q: How did the inhibition turn out when `COc1ccc(CN2C(=O)Cc3c2nc(N)c2c(N)nc(N4CCCCC4)c(C#N)c32)cc1` was run?
A: Its inhibition is 45.7% (inactive).

Q: Which inhibition does the source give for `O=C(O)c1cc(-c2ccc(Cl)c(Cl)c2)n(-c2ccc(F)cc2)n1` here?
A: Its inhibition is 8.75% (inactive).

Q: With `Nc1nc(-c2ccccn2)nc(N)c1Cc1ccc(Cl)cc1Cl` as the compound, how does the inhibition read?
A: The inhibition was 22.1% (inactive).

Q: With `Cc1ccc(C(=O)NC2(O)C(=O)c3ccccc3C2=O)cc1C` as the compound, how does the inhibition read?
A: The inhibition was 29.6% (inactive).

Q: How did the inhibition turn out when `O=C(O)c1cc(-c2ccc(Cl)c(Cl)c2)n(-c2ccccc2)n1` was run?
A: The inhibition was 12.2% (inactive).

Q: How did the inhibition turn out when `CCCN(CC1CC1)c1nc(N)c2c(N)nc(OC)cc2c1C#N` was run?
A: Its inhibition is 8.48% (inactive).

Q: Which inhibition does the source give for `O=c1[nH]c(Nc2ccccc2)cc2ccccc12` here?
A: The inhibition was 19% (inactive).

Q: With `COc1cc(Br)c(C(=O)c2nccc3cc(OC)c(OC)cc23)cc1OC` as the compound, how does the inhibition read?
A: The inhibition was 9.5% (inactive).

Q: Which inhibition does the source give for `CCOC(=O)c1sc(N2C(=O)C(O)=C(C(=O)c3ccco3)C2c2cccc([N+](=O)[O-])c2)nc1C` (stereo not given) here?
A: Its inhibition is 51.3% (inactive).

Q: How did the inhibition turn out when `COc1cnc(-c2ccccn2)nc1Sc1ccc(F)cc1` was run?
A: The inhibition was 3.69% (inactive).

Q: With `Oc1cccc(/C=N/Nc2cc(N3CCCC3)nc(N3CCCC3)n2)c1` as the compound, how does the inhibition read?
A: Its inhibition is 20.3% (inactive).

Q: Which inhibition does the source give for `Clc1ccc(-n2nnnc2-c2cnc(-c3ccccn3)nc2-c2cccs2)cc1` here?
A: Its inhibition is 0.651% (inactive).

Q: How did the inhibition turn out when `O=S(=O)(Cc1cc(NCc2ccccc2)nc(-c2ccccn2)n1)c1ccccc1` was run?
A: Its inhibition is 11.7% (inactive).

Q: Which inhibition does the source give for `COc1cnc(-c2ccccn2)nc1Sc1ccccc1Cl` here?
A: The inhibition was 9.17% (inactive).
